Tests used:
Type in all cases: in vivo, Wistar rats
[1] = Plasma concentrations and pharmacokinetics after intravenous bolus of C3G (NCA and two-compartment model); conditions: male, Wistar, rat, plasma, iv; for concentration at 2 min: 2 min after i.v. 668 nmol C3G; for concentration at 2 min / concentration at 0.25 min / concentration at 5 min / concentration at 15 min / concentration at 20 min: mean ± SEM n=4; for AUC0-t / half-life: i.v. 668 nmol C3G; for AUC0-t: read-out: AUC0–20 (converted); for half-life: 668 nmol, read-out: Half life; for concentration at 0.25 min: 0.25 min after i.v. 668 nmol C3G; for concentration at 5 min: 5 min after i.v. 668 nmol C3G; for concentration at 15 min: 15 min after i.v. 668 nmol C3G; for concentration at 20 min: 20 min after i.v. 668 nmol C3G
Description: (§1) Twenty-two male Wistar rats (Rattus Norvegicus, Harlan Italy S.r.l.), of same age (15 weeks), 293–390 g of body weight, were used. The rats were randomly divided into 5 groups, according to the time that elapsed after intravenous administration of the test compound, and one control group. Each time point was represented by four biological replicates. All animals were allowed to acclimate to the animal facility of the University of Trieste for at least 2 week before studies were initiated. The experimental design was vetted and approved by the bioethical committee of the University of Trieste (internal code 140PAS14), according to the provisions of the European Community Council Directive 2010/63/EU[39]. The methods were carried out in accordance with the approved guidelines. The animals (n = 22) were maintained in cages in a room at 23 ± 2 °C, 50–60% humidity with a 12-hour light-dark cycle. The night before the experiment, food was withdrawn from the cages but water was given ad libitum. On the day of the experiment, the rats were anesthetized with intra-peritoneal administration of tiletamine/zolazepam (1:1, 25 mg/kg body weight) and xylazine (10 mg/kg body weight). During anaesthesia (10 min in all cases), the heart and ventilation rate were monitored. The rats were placed on their backs, with the ventral side up and with the legs spread separately on a thermo-isolated support. The penis was extruded by sliding the prepuce downwards. The dorsal penis vein was then seen along both sides of the penis and exactly 10 min after anaesthesia 0.2 mL PBS without (control group) or with (treated group) 668 nmol cyanidin 3-glucoside (C3G) in PBS was injected using a 24-G hypodermic needle. Then the injection site was pressed with a swab for a few seconds, and the glans was encouraged to retract to prevent further bleeding. One min before sacrificing the rats, sodium heparin (0.1 ml, 500 IU) was injected again into the dorsal penis vein, exposed in the same way. […] Blood draining and excision of the organs were carried out according to the literature. In detail, blood was collected from the neck of rats hold upside down, immediately after their decapitation, which happened at the time points sharp. Exsanguination took 5 seconds; laparotomy and excision of the liver and the kidneys took 5 more seconds. The post-decapitation procedures were standardised. Urine was collected through the urinary bladder with a syringe before decapitation. Kidneys, liver and brain were washed with mQ water, immediately frozen in liquid nitrogen and stored at −80 °C.
(§2) Immediately after sampling, 5 mL of blood were transferred into ice-cold (−20 °C), deoxygenated aqueous 95% methanol in a ratio 1:9 (v/v). The urine was weighted and transferred into ice-cold, deoxygenated aqueous 95% methanol at a ratio of 1:9 (w/v). Frozen kidneys, liver and brain were grounded under cryogenic conditions (−196 °C) to 5 μm particles in a CryoMill (Retsch, Germany), using a single 25 mm i. d. steel ball (30 seconds, 25/sec frequency). The pulverized tissue was rapidly transferred (without thawing) into ice-cold, deoxygenated aqueous 95% methanol at a ratio of 1:9 (w/v). Cinnamic acid-d5, as internal standard, was dissolved in the aqueous methanol at concentration of 0.1 mg/L for the monitoring of the extraction protocol in biofluids and tissues.
(§3) All samples were extracted with an orbital shaker for 10 min at room temperature. The methanol extracts were then centrifuged for 5 min at 3600 rpm at 4 °C, decanted under a stream of nitrogen in 50 mL dark glass vessels and stored at −80 °C. Clean-up of extracted samples in methanol was performed by solid phase extraction (SPE), as previously described. Briefly, 5 mL of extracted samples were evaporated on a rotary evaporator and reconstituted in 10 mL of acidified water. Anthocyanins were extracted by solid-phase adsorption onto a hydrophobic matrix (Sep-Pak C18, 0.35 g, Waters, Milford, MA). […]

[2] = Urinary excretion after intravenous C3G
Description: as §1, §2, §3

[3] = Liver concentrations and tissue pharmacokinetics after intravenous C3G; conditions: for AUC0-t: i.v. 668 nmol C3G
Description: as §1, §2, §3

[4] = Kidney concentrations and tissue pharmacokinetics after intravenous C3G; conditions: for MTTK (Mean Transit time in kidneys) / AUC0-t / half-life: kidneys; for half-life: iv
Description: as §1, §2, §3

[5] = Brain concentrations and tissue pharmacokinetics after intravenous C3G; conditions: for AUC0-t: i.v. 668 nmol C3G
Description: as §1, §2, §3

[6] = 0.25 min after i.v. 668 nmol C3G
[7] = 0.25–20 min after i.v. 668 nmol C3G
[8] = 0.25 min after i.v. 668 nmol C3G, mean ± SEM n=4
[9] = male, Wistar, rat, kidney, 668 nmol

Compound	concentration at 2 min [1] [nM]	Urine concentration [2, 6] [pmol/g]	Urine concentration ([2]; 2 min after i.v. 668 nmol C3G) [pmol/g]	Urine concentration ([2]; 5 min after i.v. 668 nmol C3G) [pmol/g]	Urine concentration ([2]; 15 min after i.v. 668 nmol C3G) [pmol/g]	Urine concentration ([2]; 20 min after i.v. 668 nmol C3G) [pmol/g]	AUC0-t [1] [nM·h]	half-life [1] [min]	concentration at 0.25 min [1] [nM]	concentration at 5 min [1] [nM]	concentration at 15 min [1] [nM]	concentration at 20 min [1] [nM]	Mean concentration in liver [3, 8] [pmol/g]	Mean concentration in liver ([3]; 2 min after i.v. 668 nmol C3G) [pmol/g]	Mean concentration in liver ([3]; 5 min after i.v. 668 nmol C3G) [pmol/g]	Mean concentration in liver ([3]; 15 min after i.v. 668 nmol C3G) [pmol/g]	Mean concentration in liver ([3]; 20 min after i.v. 668 nmol C3G) [pmol/g]	AUC0-t ([3]; liver) [pmol·min/g]	Mean concentration in kidneys ([4]; 2 min after i.v. 668 nmol C3G) [nmol/g]	Mean concentration in kidneys ([4]; 5 min after i.v. 668 nmol C3G) [nmol/g]	also measured
COc1cc(-c2[o+]c3cc(O)cc(O)c3cc2O[C@@H]2O[C@H](CO)[C@@H](O)[C@H](O)[C@H]2O)cc(OC)c1O [M3G, Malvidin-3-O-β-glucoside]	95.8 ± 61.7	28.35 ± 17.87	9.57 ± 4.52	5.15 ± 1.88	3.17 ± 1.64	–	5.72	5.29	9.13 ± 3.46	16.4 ± 13.1	3.67 ± 0.14	8.6 ± 3.88	–	–	–	–	–	–	–	–	–
COc1cc(-c2[o+]c3cc(O)cc(O)c3cc2O[C@@H]2O[C@H](CO)[C@@H](O)[C@H](O)[C@H]2O)ccc1O [PN3G, Peonidin-3-O-β-glucoside]	13.1 ± 2.35	10 ± 0	1480 ± 410	6540 ± 330	5670 ± 2240	5160 ± 1110	2.91	8.16	33.7 ± 5.51	12.3 ± 1.37	3.73 ± 0.94	3.4 ± 0.22	539.38 ± 71.33	317.61 ± 35.86	364.74 ± 44.85	216.10 ± 36.06	100.84 ± 6.33	5610.12	1.56 ± 0.18	0.85 ± 0.08	Amounts found in liver (range over sampling times) [3, 7]: 100.84 to 539.38 pmol/g; MTTL (Mean Transit Time in the liver) ([3]; liver): 3.93 min; Kp ([3]; male, Wistar, rat, intravenous, 668 nmol, liver vs plasma, read-out: AUC in liver relative to plasma): 32.1; half-life ([3]; male, Wistar, rat, liver, iv, 668 nmol, read-out: Half-life): 9.99 min; Mean concentration in kidneys [4, 8]: 1.99 ± 0.55 nmol/g; Mean concentration in kidneys ([4]; 15 min after i.v. 668 nmol C3G): 0.89 ± 0.22 nmol/g; Mean concentration in kidneys ([4]; 20 min after i.v. 668 nmol C3G): 0.90 ± 0.14 nmol/g; MTTK (Mean Transit time in kidneys) [4]: 23.11 min; AUC0-t ([4]; i.v. 668 nmol C3G): 20.36 nmol·min/g; Kp ([4]; male, Wistar, rat, kidney, intravenous, 668 nmol, kidneys vs plasma, read-out: AUC in kidneys relative to plasma): 116; half-life [4, 9]: 20.8 min; Amounts found in brain (range over sampling times) [5, 7]: 0.37 to 2.07 pmol/g; Mean concentration in brain ([5]; 2 min after i.v. 668 nmol C3G): 2.07 ± 1.18 pmol/g; Mean concentration in brain ([5]; 5 min after i.v. 668 nmol C3G): 0.70 ± 0.30 pmol/g; Mean concentration in brain ([5]; 15 min after i.v. 668 nmol C3G): 0.40 ± 0.38 pmol/g; Mean concentration in brain ([5]; 20 min after i.v. 668 nmol C3G): 0.37 ± 0.13 pmol/g; MTTB (Mean Transit Time in the brain) ([5]; brain): 8.61 min; AUC0-t ([5]; brain): 17.10 pmol·min/g; half-life ([5]; male, Wistar, rat, brain, iv, 668 nmol): 15.6 min; Kp ([5]; male, Wistar, rat, intravenous, 668 nmol, brain vs plasma, read-out: AUC in brain as share of that in plasma): 0.0978
COc1ccc(-c2[o+]c3cc(O)cc(O)c3cc2O[C@@H]2O[C@H](CO)[C@@H](O)[C@H](O)[C@H]2O)cc1O [isoPN3G]	–	–	–	–	–	–	–	–	–	–	–	–	13.86 ± 4.32	6.19 ± 2.09	15.85 ± 1.82	1.39 ± 1.14	0.64 ± 0.25	145.57	–	–	half-life ([3]; liver): 3.18 min; Peak relative to PN3G ([3]; liver only): around 2.59 % of PN3G

Now from value to compound, other results behind:

concentration at 2 min [1] [nM]	Urine concentration [2, 6] [pmol/g]	Urine concentration ([2]; 2 min after i.v. 668 nmol C3G) [pmol/g]	Urine concentration ([2]; 5 min after i.v. 668 nmol C3G) [pmol/g]	Urine concentration ([2]; 15 min after i.v. 668 nmol C3G) [pmol/g]	Urine concentration ([2]; 20 min after i.v. 668 nmol C3G) [pmol/g]	AUC0-t [1] [nM·h]	half-life [1] [min]	concentration at 0.25 min [1] [nM]	concentration at 5 min [1] [nM]	concentration at 15 min [1] [nM]	concentration at 20 min [1] [nM]	Mean concentration in liver [3, 8] [pmol/g]	Mean concentration in liver ([3]; 2 min after i.v. 668 nmol C3G) [pmol/g]	Mean concentration in liver ([3]; 5 min after i.v. 668 nmol C3G) [pmol/g]	Mean concentration in liver ([3]; 15 min after i.v. 668 nmol C3G) [pmol/g]	Mean concentration in liver ([3]; 20 min after i.v. 668 nmol C3G) [pmol/g]	AUC0-t ([3]; liver) [pmol·min/g]	Mean concentration in kidneys ([4]; 2 min after i.v. 668 nmol C3G) [nmol/g]	Mean concentration in kidneys ([4]; 5 min after i.v. 668 nmol C3G) [nmol/g]	Compound	also measured
12.8 ± 10.5	20 ± 10	30 ± 0	50 ± 10	20 ± 10	30 ± 10	–	–	–	–	–	–	–	–	–	–	–	–	–	–	OC[C@H]1O[C@@H](Oc2cc3c(O)cc(O)cc3[o+]c2-c2cc(O)c(O)c(O)c2)[C@H](O)[C@@H](O)[C@@H]1O [D3G, Delphinidin-3-O-β-glucoside]	–
1.89 ± 0.17	1.57 ± 0.40	7.92 ± 2.59	47.09 ± 4.16	33.22 ± 16.09	20.98 ± 5.61	0.673	44.7	4.5 ± 0.62	2.01 ± 0.28	1.9 ± 0.19	1.55 ± 0.13	–	–	–	–	–	–	–	–	OC[C@H]1O[C@@H](Oc2cc3c(O)cc(O)cc3[o+]c2-c2ccc(O)cc2)[C@H](O)[C@@H](O)[C@@H]1O [PG3G, Pelargonidin-3-O-β-glucoside]	–
4.95 ± 3.16	4.58 ± 2.84	3.30 ± 1.59	–	–	–	–	–	2.2 ± 1.05	1.71 ± 1.39	–	–	1.23 ± 0.59	2.42 ± 0.08	1.09 ± 0.52	1.60 ± 0.44	3.06 ± 0.19	33.85	0.00282 ± 0.00028	0.0024 ± 0.00013	COc1cc(-c2[o+]c3cc(O)cc(O)c3cc2O[C@@H]2O[C@H](CO)[C@@H](O)[C@H](O)[C@H]2O)cc(O)c1O [PT3G, Petunidin-3-O-β-glucoside]	Mean concentration in kidneys [4, 6]: 0.00204 ± 0.00059 nmol/g; Mean concentration in kidneys ([4]; 15 min after i.v. 668 nmol C3G): 0.00229 ± 7e-05 nmol/g; Mean concentration in kidneys ([4]; 20 min after i.v. 668 nmol C3G): 0.00253 ± 0.00026 nmol/g; MTTK (Mean Transit time in kidneys) [4]: 187.44 min; AUC0-t ([4]; unit per footnote *): 48.13 ^* pmol g^–1 min^–1; half-life [4, 9]: 135 min; Mean concentration in brain ([5]; 2 min after i.v. 668 nmol C3G): 1.15 ± 0.62 pmol/g; Mean concentration in brain ([5]; 5 min after i.v. 668 nmol C3G): 1.01 ± 0.46 pmol/g; Mean concentration in brain ([5]; 15 min after i.v. 668 nmol C3G): 2.45 ± 0.22 pmol/g; Mean concentration in brain ([5]; 20 min after i.v. 668 nmol C3G): 1.90 ± 0.60 pmol/g; AUC0-t ([5]; brain): 32.42 pmol·min/g

— article PMC4786809, “Determination of cyanidin 3-glucoside in rat brain, liver and kidneys by UPLC/MS-MS and its application to a short-term pharmacokinetic study” (Scientific Reports, 2016)
